Patent publication US20190030036A1, “PHOSPHODIESTERASE INHIBITOR TREATMENT” (Cyrano Therapeutics, Inc., priority 2013, published 2019)
Marks after values point to notes of the source that are not given here.

Test system: patients with hyposmia
Assay: Smell function (DT, RT, ME, H) by forced-choice, three-stimuli, stepwise-staircase technique with four odors; open trial of oral theophylline
Format: in vivo, human
Text: Patients initially reported their sensory dysfunction as either loss of taste (e.g., flavor) and/or smell function. This subjective response was documented by objective psychophysical measurements of olfactory function administered to each patient by use of a forced-choice, three-stimuli, stepwise-staircase technique in a fixed, controlled design (1, 53). Efficacy of this technique and results of testing were previously documented in a double-blind clinical trial (53). Four odors were used; they were pyridine (dead-fish odor), nitrobenzene (bitter-almond odor), thiophene (petroleum-like odor) and amyl acetate (banana-oil odor). Detection thresholds (DT), recognition thresholds (RT) and magnitude estimation (ME) values for each odor were determined as previously described (1, 53). Thresholds were converted into bottle units (BU) as previously described (53) and results reported as M±SEM of correct responses for each odor in each treatment group; ME was reported in % and results calculated to obtain M±SEM for each treatment group for all correct responses using data for the four highest odor concentrations presented (from 10^−2M—an absolute odor concentration).
In addition, each patient graded the hedonic (H) value of each odor presented for these same odor concentrations (from 10^−2M—an absolute odor concentration using a −100−0−+100 scale). […] Results were obtained by calculating the arithmetical sum of each correct recognition response for each odor with respect to its pleasantness, unpleasantness or neutrality. Arithmetic M±SEM were obtained for each treatment group for each odor presented.
After determination of hyposmia, patients were treated in an open label, fixed design, controlled open trial. Patients were given an oral extended release theophylline in divided daily doses taken in the middle of breakfast and lunch. All patients were initially given 200 mg of theophylline; changes in this dose were made based upon subjective responses to therapy. If at a subsequent return visit, patients reported ≥5% subjective improvement in overall smell function, they continued on this same dose of theophylline and were reevaluated after four to six months of continued treatment. Results from any subsequent return from these improved patients were not included in any subsequent data report. All subsequent comparisons between treated and untreated patients were made only between those patients continuing in the study compared to their own measurements obtained in the untreated state. If patients reported <5% subjective improvement, their theophylline dose was increased by 200 mg daily and they were scheduled for retesting at the study site after two to four months at this new dosage. For patients that reported <5% improvement, this sequence continued until patients reached 800 mg of theophylline, at which time the study was considered completed.
Patients returned for reevaluation after two to four months of treatment. Measurements of blood serum theophylline were measured by a fluorescence polarization assay (Abbott, Chicago, Ill.). At this time, subjective changes in smell function were measured independently (compared to patient's memory of previous normal smell function monitored by use of the patients' daily measurements) using the scale from −100−0-+100 previously described. After independently recording their subjective responses, smell function was measured for all four odors with DT, RT, ME and H determined without recourse to prior measurements.
Since data for all measurements from each patient group (local or distant) on each dose level were combined mean and SEM for each measurement (DT, RT, ME, H) of smell function for each treatment group were calculated on this basis. Differences in measurements between before treatment and each treatment level were calculated and significance of differences estimated using Student t tests (values p<0.05 considered significant). […]

[1] = pyridine, oral theophylline 200 mg
[2] = pyridine, oral theophylline 200 mg daily, all patients (199)
[3] = pyridine, oral theophylline 200 mg, Type I hyposmia (57)
[4] = pyridine, oral theophylline 200 mg, Type II hyposmia (138)
[5] = pyridine, oral theophylline 200 mg, Type III hyposmia (4)
[6] = pyridine, oral theophylline 400 mg
[7] = pyridine, oral theophylline 400 mg daily, all patients (120)
[8] = pyridine, oral theophylline 400 mg, Type I hyposmia (33)
[9] = pyridine, oral theophylline 400 mg, Type II hyposmia (85)
[10] = pyridine, oral theophylline 400 mg, Type III hyposmia (2)
[11] = pyridine, oral theophylline 600 mg daily, all patients (160)
[12] = pyridine, oral theophylline 600 mg, Type I hyposmia (51)
[13] = pyridine, oral theophylline 600 mg, Type II hyposmia (105)
[14] = pyridine, oral theophylline 600 mg, Type III hyposmia (4)
[15] = pyridine, oral theophylline 800 mg daily, all patients (28)
[16] = pyridine, oral theophylline 800 mg, Type I hyposmia (12)
[17] = pyridine, oral theophylline 800 mg, Type II hyposmia (16)
[18] = thiophene, oral theophylline 200 mg
[19] = thiophene, oral theophylline 200 mg daily, all patients (199)
[20] = thiophene, oral theophylline 200 mg, Type I hyposmia (57)
[21] = thiophene, oral theophylline 200 mg, Type II hyposmia (138)
[22] = thiophene, oral theophylline 200 mg, Type III hyposmia (4)
[23] = thiophene, oral theophylline 400 mg
[24] = thiophene, oral theophylline 400 mg daily, all patients (120)
[25] = thiophene, oral theophylline 400 mg, Type I hyposmia (33)
[26] = thiophene, oral theophylline 400 mg, Type II hyposmia (85)
[27] = thiophene, oral theophylline 400 mg, Type III hyposmia (2)
[28] = thiophene, oral theophylline 600 mg daily, all patients (160)
[29] = thiophene, oral theophylline 600 mg, Type I hyposmia (51)
[30] = thiophene, oral theophylline 600 mg, Type II hyposmia (105)
[31] = thiophene, oral theophylline 600 mg, Type III hyposmia (4)
[32] = thiophene, oral theophylline 800 mg daily, all patients (28)
[33] = thiophene, oral theophylline 800 mg, Type I hyposmia (12)
[34] = thiophene, oral theophylline 800 mg, Type II hyposmia (16)

`Cn1c(=O)c2[nH]cnc2n(C)c1=O` [theophylline] was tested, and the “total mean increase of ME for all odors” value (oral theophylline 600 mg) was 6.9%, the “decrease of H for pyridine” value (oral theophylline 800 mg daily) was 55% and the “decrease of H for thiophene” value (oral theophylline 800 mg daily) was 37%. The “increase of H for amyl acetate” value (oral theophylline 800 mg daily) was “about 50%”, the “increase of H for nitrobenzene” value (oral theophylline 800 mg daily) was “about 50%” and the “decrease of H values” [1] was 2%. The “increase of ME values” [1] was 6%, the “DT, detection threshold” value [2] was 7.6 ± 0.2^a BU and the “H, hedonic estimation” value [2] was −22 ± 2^a %. For the same molecule, the “ME, magnitude estimation” value [2] was 28 ± 2^a %, the “RT, recognition threshold” value [2] was 9.0 ± 0.2^a BU and the “DT, detection threshold” value [3] was 9.5 ± 0.2^ BU. For the same molecule, the “H, hedonic value” [3] was −8 ± 2^a %, the “ME, magnitude estimation” value [3] was 11 ± 2^a % and the “RT, recognition threshold” value [3] was 11.0 ± 0.2^a BU. For the same molecule, the “DT, detection threshold” value [4] was 6.9 ± 0.2^ BU, the “H, hedonic value” [4] was −28 ± 2^ % and the “ME, magnitude estimation” value [4] was 35 ± 2^ %. For the same molecule, the “RT, recognition threshold” value [4] was 8.2 ± 0.2^a BU, the “DT, detection threshold” value [5] was 4.0 ± 0.6 BU and the “H, hedonic value” [5] was −40 ± 13%. The “ME, magnitude estimation” value [5] was 45 ± 11%, the “RT, recognition threshold” value [5] was 5.2 ± 0.5 BU and the ME increases [6] was 12%. For the same molecule, the “increases in H values” [6] was 9%, the “DT, detection threshold” value [7] was 7.0 ± 0.3^c BU and the “H, hedonic estimation” value [7] was −26 ± 3^b %. For the same molecule, the “ME, magnitude estimation” value [7] was 33 ± 3^a %, the “RT, recognition threshold” value [7] was 8.5 ± 0.3^a BU and the “DT, detection threshold” value [8] was 8.8 ± 0.5^ BU. The “H, hedonic value” [8] was −7 ± 3^a %, the “ME, magnitude estimation” value [8] was 12 ± 3^a % and the “RT, recognition threshold” value [8] was 10.6 ± 0.4^ BU. For the same molecule, the “DT, detection threshold” value [9] was 6.3 ± 0.3^a BU, the “H, hedonic value” [9] was −34 ± 3^ % and the “ME, magnitude estimation” value [9] was 41 ± 3^a %. The “RT, recognition threshold” value [9] was 7.7 ± 0.3^a BU, the “DT, detection threshold” value [10] was 5.0 BU and the “H, hedonic value” [10] was −40%. For the same molecule, the “ME, magnitude estimation” value [10] was 45%, the “RT, recognition threshold” value [10] was 5.0 BU and the “DT, detection threshold” value [11] was 7.4 ± 0.2^c BU. For the same molecule, the “H, hedonic estimation” value [11] was −19 ± 2^ %, the “ME, magnitude estimation” value [11] was 26 ± 2^d % and the “RT, recognition threshold” value [11] was 9.4 ± 0.2^c BU. The “DT, detection threshold” value [12] was 8.9 ± 0.3^b BU, the “H, hedonic value” [12] was −8 ± 2^a % and the “ME, magnitude estimation” value [12] was 11 ± 3^a %. The “RT, recognition threshold” value [12] was 10.9 ± 0.3^ BU, the “DT, detection threshold” value [13] was 6.7 ± 0.3^a BU and the “H, hedonic value” [13] was −25 ± 3^ %. For the same molecule, the “ME, magnitude estimation” value [13] was 33 ± 2^ %, the “RT, recognition threshold” value [13] was 8.9 ± 0.3^ BU and the “DT, detection threshold” value [14] was 3.8 ± 0.9 BU. For the same molecule, the “H, hedonic value” [14] was −26 ± 22%, the “ME, magnitude estimation” value [14] was 41 ± 15% and the “RT, recognition threshold” value [14] was 5.5 ± 0.9 BU. For the same molecule, the “DT, detection threshold” value [15] was 6.9 ± 0.6 BU, the “H, hedonic estimation” value [15] was −22 ± 6% and the “ME, magnitude estimation” value [15] was 29 ± 5%. For the same molecule, the “RT, recognition threshold” value [15] was 8.5 ± 0.6^c BU, the “DT, detection threshold” value [16] was 9.6 ± 0.8^ BU and the “H, hedonic value” [16] was −11 ± 5^a %. The “ME, magnitude estimation” value [16] was 10 ± 4^a %, the “RT, recognition threshold” value [16] was 10.3 ± 1.0^ BU and the “DT, detection threshold” value [17] was 4.7 ± 0.7^a BU. The “H, hedonic value” [17] was −31 ± 9^ %, the “ME, magnitude estimation” value [17] was 43 ± 5^c % and the “RT, recognition threshold” value [17] was 7.1 ± 0.7^a BU. For the same molecule, the “decrease of H values” [18] was 2%, the “increase of ME values” [18] was 5% and the “DT, detection threshold” value [19] was 7.5 ± 0.2^c BU. The “H, hedonic estimation” value [19] was −15 ± 2^d %, the “ME, magnitude estimation” value [19] was 21 ± 2 ^ % and the “RT, recognition threshold” value [19] was 9.1 ± 0.2^c BU. The “DT, detection threshold” value [20] was 10.1 ± 0.3^d BU, the “H, hedonic value” [20] was −3 ± 2^a % and the “ME, magnitude estimation” value [20] was 6 ± 2^a %. For the same molecule, the “RT, recognition threshold” value [20] was 11.4 ± 0.2^ BU, the “DT, detection threshold” value [21] was 6.5 ± 0.3^ BU and the “H, hedonic value” [21] was −19 ± 2^ %. For the same molecule, the “ME, magnitude estimation” value [21] was 27 ± 2^ %, the “RT, recognition threshold” value [21] was 8.2 ± 0.3^a BU and the “DT, detection threshold” value [22] was 3.2 ± 0.8 BU. The “H, hedonic value” [22] was −40 ± 18%, the “ME, magnitude estimation” value [22] was 47 ± 15% and the “RT, recognition threshold” value [22] was 3.8 ± 0.6 BU. For the same molecule, the ME increases [23] was 12%, the “increases in H values” [23] was 7% and the “DT, detection threshold” value [24] was 6.8 ± 0.4^c BU. The “H, hedonic estimation” value [24] was −19 ± 2^d %, the “ME, magnitude estimation” value [24] was 26 ± 2^c % and the “RT, recognition threshold” value [24] was 8.4 ± 0.3^a BU. For the same molecule, the “DT, detection threshold” value [25] was 9.8 ± 0.5^a BU, the “H, hedonic value” [25] was −5 ± 2^a % and the “ME, magnitude estimation” value [25] was 7 ± 2^a %. For the same molecule, the “RT, recognition threshold” value [25] was 10.8 ± 0.4^ BU, the “DT, detection threshold” value [26] was 5.7 ± 0.4^ BU and the “H, hedonic value” [26] was −23 ± 3^ %. The “ME, magnitude estimation” value [26] was 31 ± 3^ %, the “RT, recognition threshold” value [26] was 7.6 ± 0.4^a BU and the “DT, detection threshold” value [27] was 1 BU. For the same molecule, the “H, hedonic value” [27] was −99%, the “ME, magnitude estimation” value [27] was 99% and the “RT, recognition threshold” value [27] was 1 BU. The “DT, detection threshold” value [28] was 7.1 ± 0.3^a BU, the “H, hedonic estimation” value [28] was −14 ± 2 ^ % and the “ME, magnitude estimation” value [28] was 21 ± 2^d %. The “RT, recognition threshold” value [28] was 9.0 ± 0.3^c BU, the “DT, detection threshold” value [29] was 9.4 ± 0.4^a BU and the “H, hedonic value” [29] was −3 ± 2^a %. The “ME, magnitude estimation” value [29] was 7 ± 2^a %, the “RT, recognition threshold” value [29] was 10.9 ± 0.3^d BU and the “DT, detection threshold” value [30] was 6.1 ± 0.3^a BU. For the same molecule, the “H, hedonic value” [30] was −20 ± 2^ %, the “ME, magnitude estimation” value [30] was 27 ± 2^ % and the “RT, recognition threshold” value [30] was 8.1 ± 0.3^a BU. The “DT, detection threshold” value [31] was 2.0 ± 1.0 BU, the “H, hedonic value” [31] was −35 ± 24% and the “ME, magnitude estimation” value [31] was 42 ± 20%. The “RT, recognition threshold” value [31] was 3.8 ± 0.9 BU, the “DT, detection threshold” value [32] was 7.2 ± 0.7 BU and the “H, hedonic estimation” value [32] was −15 ± 4%. The “ME, magnitude estimation” value [32] was 20 ± 4%, the “RT, recognition threshold” value [32] was 9.6 ± 0.6 BU and the “DT, detection threshold” value [33] was 10.0 ± 0.7^ BU. For the same molecule, the “H, hedonic value” [33] was −4 ± 2^a %, the “ME, magnitude estimation” value [33] was 4 ± 2^a % and the “RT, recognition threshold” value [33] was 11.6 ± 0.2^ BU. For the same molecule, the “DT, detection threshold” value [34] was 4.9 ± 0.7^a BU, the “H, hedonic value” [34] was −24 ± 8^ % and the “ME, magnitude estimation” value [34] was 33 ± 6^ %. The “RT, recognition threshold” value [34] was 8.0 ± 1.0^ BU.
